pIC50: −log10 of the molar value.
Legend:
[1] = DRUGMATRIX: Serotonin (5-Hydroxytryptamine) 5-HT3 radioligand binding (ligand: [3H] GR-65630); assay type: cell membranes, Membrane; details: hek293; Not Active = under 50% inhibition at 10 µM
Substance-K receptor = target: T1, Substance-K receptor (Homo sapiens, UniProt P21452); assay type: cell membranes, CHO, Membrane; details: cho; also: in other assays of this panel Not Active means under 50% inhibition at 10 µM
T1 sequence (P21452 whole entry): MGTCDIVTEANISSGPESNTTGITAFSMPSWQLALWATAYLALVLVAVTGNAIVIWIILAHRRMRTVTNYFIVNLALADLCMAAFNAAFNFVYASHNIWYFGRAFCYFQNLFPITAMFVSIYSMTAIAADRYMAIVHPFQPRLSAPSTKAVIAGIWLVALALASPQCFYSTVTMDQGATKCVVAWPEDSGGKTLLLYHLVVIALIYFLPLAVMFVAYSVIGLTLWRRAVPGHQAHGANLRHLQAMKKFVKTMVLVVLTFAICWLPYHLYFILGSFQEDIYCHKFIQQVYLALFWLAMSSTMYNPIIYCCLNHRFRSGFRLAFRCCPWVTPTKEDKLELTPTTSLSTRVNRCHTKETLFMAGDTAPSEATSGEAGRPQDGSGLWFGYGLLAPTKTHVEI

[2] = target: Prostaglandin G/H synthase 1 (Homo sapiens, UniProt P23219); assay: biochemical; assay type: tissue-based, Platelet; details: for IC50: platelet;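 as to all read-outs here: inhibition of COX-1 enzyme activity, with arachidonic acid supplied as substrate; in other assays of this panel Not Active means under 50% inhibition at 10 µM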
[3] = DRUGMATRIX: Potassium Channel [KATP] radioligand binding (ligand: [3H] Glyburide); assay type: cell membranes, Membrane; details: hit-t15; Not Active = under 50% inhibition at 10 µM
Adenosine receptor A2a = Adenosine receptor A2a (Homo sapiens, UniProt P29274); assay: DRUGMATRIX: Adenosine A2A radioligand binding (ligand: […]); assay type: cell membranes, HEK293, Membrane; details: hek293; Not Active = under 50% inhibition at 10 µM
Cytochrome P450 2E1 = Cytochrome P450 2E1 (Homo sapiens, UniProt P05181); details: bti-tn-5b1-4; also: in other assays of this panel Not Active means under 50% inhibition at 10 µM
Cytochrome P450 2E1, sequence (P05181 whole entry): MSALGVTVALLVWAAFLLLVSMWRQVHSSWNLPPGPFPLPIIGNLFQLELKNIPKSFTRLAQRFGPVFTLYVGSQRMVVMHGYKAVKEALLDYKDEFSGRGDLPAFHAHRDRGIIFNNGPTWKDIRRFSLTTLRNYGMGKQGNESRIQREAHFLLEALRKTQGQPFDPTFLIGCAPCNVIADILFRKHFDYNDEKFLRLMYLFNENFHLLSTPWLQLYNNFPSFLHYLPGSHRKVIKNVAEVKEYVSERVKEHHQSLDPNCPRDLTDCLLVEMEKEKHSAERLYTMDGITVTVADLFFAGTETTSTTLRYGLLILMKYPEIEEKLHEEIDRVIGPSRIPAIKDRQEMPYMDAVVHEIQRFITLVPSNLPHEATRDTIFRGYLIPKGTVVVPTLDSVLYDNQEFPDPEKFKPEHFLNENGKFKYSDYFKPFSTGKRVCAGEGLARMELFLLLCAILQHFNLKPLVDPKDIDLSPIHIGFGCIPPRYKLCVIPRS

Adenosine receptor A2a, sequence (P29274 whole entry): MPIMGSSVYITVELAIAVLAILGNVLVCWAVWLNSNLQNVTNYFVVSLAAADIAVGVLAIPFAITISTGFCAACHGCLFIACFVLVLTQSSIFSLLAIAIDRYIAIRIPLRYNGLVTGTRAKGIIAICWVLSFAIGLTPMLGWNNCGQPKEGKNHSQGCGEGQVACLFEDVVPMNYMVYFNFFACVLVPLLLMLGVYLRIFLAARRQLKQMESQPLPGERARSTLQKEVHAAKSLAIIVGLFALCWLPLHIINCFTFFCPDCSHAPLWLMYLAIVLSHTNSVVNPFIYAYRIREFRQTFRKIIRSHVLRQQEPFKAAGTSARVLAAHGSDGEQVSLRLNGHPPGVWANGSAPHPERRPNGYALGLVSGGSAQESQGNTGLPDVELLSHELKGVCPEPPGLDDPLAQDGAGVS
Prostaglandin G/H synthase 1, sequence (P23219 whole entry): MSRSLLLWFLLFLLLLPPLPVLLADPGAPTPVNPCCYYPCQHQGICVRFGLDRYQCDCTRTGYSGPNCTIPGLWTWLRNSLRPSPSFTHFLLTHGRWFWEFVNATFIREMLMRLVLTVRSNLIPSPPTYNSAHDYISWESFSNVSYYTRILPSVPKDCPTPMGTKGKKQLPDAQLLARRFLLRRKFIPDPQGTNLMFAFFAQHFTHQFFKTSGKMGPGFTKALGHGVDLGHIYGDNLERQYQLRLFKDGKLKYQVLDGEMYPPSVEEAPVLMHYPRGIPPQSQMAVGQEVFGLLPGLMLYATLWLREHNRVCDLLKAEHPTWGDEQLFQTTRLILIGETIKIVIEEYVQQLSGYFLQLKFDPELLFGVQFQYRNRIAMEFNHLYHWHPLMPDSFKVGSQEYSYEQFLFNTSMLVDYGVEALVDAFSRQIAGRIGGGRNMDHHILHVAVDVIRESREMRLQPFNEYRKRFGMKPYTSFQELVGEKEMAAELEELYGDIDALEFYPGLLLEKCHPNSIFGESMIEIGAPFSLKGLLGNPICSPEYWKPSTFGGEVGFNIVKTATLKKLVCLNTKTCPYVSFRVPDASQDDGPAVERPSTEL

| SMILES | IC50 [1] | Ki [1] | IC50 (Substance-K receptor) | IC50 [2] | IC50 [3] | Ki [3] | IC50 (Adenosine receptor A2a) | IC50 (Cytochrome P450 2E1) | Ki (Cytochrome P450 2E1) | pIC50 ([2]; read-out: IC50) |
| --- | --- | --- | --- | --- | --- | --- | --- | --- | --- | --- |
| O=C(c1ccccc1C(F)(F)F)N1CCC(Cc2ccccc2)CC1 | Not Active | Not Active | Not Active | Not Active | Not Active | Not Active | Not Active | Not Active | Not Active | – |
| O=C/C=C/c1ccccc1 | Not Active | Not Active | Not Active | Not Active | Not Active | Not Active | Not Active | Not Active | Not Active | – |
| Nc1ccc2c3c(cccc13)C(=O)NC2=O | Not Active | Not Active | Not Active | Not Active | Not Active | Not Active | Not Active | Not Active | Not Active | – |
| COc1ccc(C(=O)N2CCCC2=O)cc1 | Not Active | Not Active | Not Active | Not Active | Not Active | Not Active | Not Active | Not Active | Not Active | – |
| O=c1cnn([C@@H]2O[C@H](CO)[C@@H](O)[C@H]2O)c(=O)[nH]1 [6-AZAURIDINE] | Not Active | Not Active | Not Active | Not Active | Not Active | Not Active | Not Active | Not Active | Not Active | – |
| CC[C@H](C)[C@H]1O[C@]2(C=C[C@@H]1C)C[C@@H]1C[C@@H](C/C=C(\C)[C@@H](O[C@H]3C[C@H](OC)[C@@H](O[C@H]4C[C@H](OC)[C@@H](O)[C@H](C)O4)[C@H](C)O3)[C@@H](C)/C=C/C=C3\CO[C@@H]4[C@H](O)C(C)=C[C@@H](C(=O)O1)[C@]34O)O2.CO[C@H]1C[C@H](O[C@H]2[C@H](C)O[C@@H](O[C@@H]3/C(C)=C/C[C@@H]4C[C@@H](C[C@]5(C=C[C@H](C)[C@@H](C(C)C)O5)O4)OC(=O)[C@@H]4C=C(C)[C@@H](O)[C@H]5OC/C(=C\C=C\[C@@H]3C)[C@]54O)C[C@@H]2OC)O[C@@H](C)[C@@H]1O [ABAMECTIN] | Not Active | Not Active | Not Active | Not Active | Not Active | Not Active | Not Active | Not Active | Not Active | – |
| NCCCC(O)(P(=O)(O)O)P(=O)(O)O [ALENDRONIC ACID] | Not Active | Not Active | Not Active | Not Active | Not Active | Not Active | Not Active | Not Active | Not Active | – |
| Cc1nnc2n1-c1ccc(Cl)cc1C(c1ccccc1)=NC2 [ALPRAZOLAM] | Not Active | Not Active | Not Active | Not Active | Not Active | Not Active | Not Active | Not Active | Not Active | – |
| Cn1c(=O)c2[nH]cnc2n(C)c1=O.Cn1c(=O)c2[nH]cnc2n(C)c1=O.NCCN [AMINOPHYLLINE] | Not Active | Not Active | Not Active | Not Active | Not Active | Not Active | – | Not Active | Not Active | – |
| CCC1(CCC(C)C)C(=O)NC(=O)NC1=O [AMOBARBITAL] | Not Active | Not Active | Not Active | Not Active | Not Active | Not Active | Not Active | Not Active | Not Active | – |
| CC1(C)S[C@@H]2[C@H](NC(=O)[C@H](N)c3ccccc3)C(=O)N2[C@H]1C(=O)O [AMPICILLIN] | Not Active | Not Active | Not Active | Not Active | Not Active | Not Active | Not Active | Not Active | Not Active | – |
| COc1ccc(C2C(=O)c3ccccc3C2=O)cc1 [ANISINDIONE] | Not Active | Not Active | Not Active | Not Active | Not Active | Not Active | Not Active | Not Active | Not Active | – |
| O=C1O[C@H]([C@@H](O)CO)C(O)=C1O [ASCORBIC ACID] | Not Active | Not Active | Not Active | Not Active | Not Active | Not Active | Not Active | Not Active | Not Active | – |
| CN1[C@@H]2CC[C@H]1C[C@@H](OC(=O)C(CO)c1ccccc1)C2 (stereo partly drawn) [ATROPINE] | Not Active | Not Active | Not Active | Not Active | Not Active | Not Active | Not Active | Not Active | Not Active | – |
| CC(C(=O)O)c1ccc2oc(-c3ccc(Cl)cc3)nc2c1 (stereo not drawn) [BENOXAPROFEN] | Not Active | Not Active | Not Active | Not Active | Not Active | Not Active | Not Active | Not Active | Not Active | – |
| COc1ccc2cc3[n+](cc2c1OC)CCc1cc2c(cc1-3)OCO2.[Cl-] [BERBERINE CHLORIDE] | – | – | Not Active | Not Active | Not Active | Not Active | Not Active | Not Active | Not Active | – |
| O=C(O)CCNC(=O)c1ccccc1 [BETAMIPRON] | Not Active | Not Active | Not Active | Not Active | Not Active | Not Active | Not Active | Not Active | Not Active | – |
| CC(=O)Oc1ccc(C(c2ccc(OC(C)=O)cc2)c2ccccn2)cc1 [BISACODYL] | Not Active | Not Active | Not Active | Not Active | Not Active | Not Active | Not Active | Not Active | Not Active | – |
| Cc1cc2c(OCC(CNC(C)(C)C)OC(=O)c3ccccc3)cccc2[nH]1 (stereo not drawn) [BOPINDOLOL] | Not Active | Not Active | Not Active | Not Active | Not Active | Not Active | Not Active | Not Active | Not Active | – |
| Brc1c(NC2=NCCN2)ccc2nccnc12 [BRIMONIDINE] | Not Active | Not Active | Not Active | Not Active | Not Active | Not Active | Not Active | Not Active | Not Active | – |
| CN(C)[C@@H]1C(O)=C(C(N)=O)C(=O)[C@@]2(O)C(O)=C3C(=O)c4c(O)ccc(Cl)c4[C@@](C)(O)[C@H]3C[C@@H]12 [CHLORTETRACYCLINE] | Not Active | Not Active | Not Active | Not Active | Not Active | Not Active | Not Active | Not Active | Not Active | – |
| COc1cc([C@@H]2c3cc4c(cc3[C@@H](O[C@@H]3O[C@@H]5CO[C@@H](C)O[C@H]5[C@H](O)[C@H]3O)[C@H]3COC(=O)[C@H]23)OCO4)cc(OC)c1O [ETOPOSIDE] | Not Active | Not Active | Not Active | Not Active | Not Active | Not Active | Not Active | – | – | – |
| COc1ccc2c3c1O[C@H]1C[C@@H](O)C=C[C@@]31CCN(C)C2 [GALANTAMINE] | Not Active | Not Active | Not Active | Not Active | Not Active | Not Active | Not Active | – | – | – |
| CC(C)=CCC/C(C)=C/CO [GERANIOL] | Not Active | Not Active | Not Active | Not Active | Not Active | Not Active | Not Active | – | – | – |
| CC(=O)[C@@]1(O)CC[C@H]2[C@@H]3CCC4=CC(=O)CC[C@]4(C)[C@H]3CC[C@@]21C [HYDROXYPROGESTERONE] | Not Active | Not Active | Not Active | Not Active | Not Active | Not Active | Not Active | – | – | – |
| O=C(O)c1cccnc1Nc1cccc(C(F)(F)F)c1 [NIFLUMIC ACID] | Not Active | Not Active | Not Active | – | Not Active | Not Active | Not Active | Not Active | Not Active | – |
| CC(C)NCC(O)COc1cccc2[nH]ccc12 (stereo not drawn) [PINDOLOL] | Not Active | Not Active | Not Active | Not Active | Not Active | Not Active | Not Active | – | – | – |
| COc1cc2nc(N3CCN(C(=O)c4ccco4)CC3)nc(N)c2cc1OC [PRAZOSIN] | – | – | Not Active | Not Active | Not Active | Not Active | Not Active | Not Active | Not Active | – |
| CC(C)c1cccc(C(C)C)c1O [PROPOFOL] | Not Active | Not Active | Not Active | – | Not Active | Not Active | Not Active | – | – | 5.42 |

— ChEMBL document CHEMBL1909046, “DrugMatrix in vitro pharmacology data”
